The results in this text go back to patent publication US6136852A, “3,4-disubstituted phenylethanolaminotetralincarboxylic acid derivatives” (Kissei Pharmaceutical Co., Ltd., priority 1996, dated 2000).

Data set [1] has as its system female ICR mice. Put plainly: Acute toxicity test. The format is in vivo. The settings on record: intravenous, 30 mg/kg in saline. The method, then:
To 3 female ICR mice of 4 weeks age was administered intravenously ethyl 2-[(2S)-2-[[(2RS)-2-hydroxy-2-(4-hydroxy-3-hydroxymethylphenyl)ethyl]amino]-1,2,3,4-tetrahydronaphthalen-7-yloxy]acetate dissolved in saline at dose of 30 mg/kg.

For data set [2], the system named is β1 -adrenergic receptor. Put plainly: Action of drugs on the atrial contractions of isolated rat atrium (β1-adrenergic receptor stimulating activity). Type of data set: cell-based. The note with it: isolated SD male rat atrium, Magnus method. On the procedure:
Thus, the compounds of the present invention have markedly weak β1 -adrenergic receptor stimulating effect in comparison with the aforementioned β2 -adrenergic receptor stimulating effect.
Action of Drugs on the Atrial Contractions of Isolated Atrium
The atria of SD male rats (350 to 400 g in body weight) were isolated and the experiment was conducted according to the Magnus method. The sample with a tension of 1 g was exposed to Krebs-Henseleit solution maintained at 37° C. and gassed with a mixture of 95% of oxygen and 5% of carbon dioxide. The atrial contraction was induced isometrically via a pressure transducer and recorded on a rectigram. After addition of the drug, its efficacy was evaluated as drug concentration that increased 20 beats per minute of heart rate (i.e., EC20 value).

The target in data set [3] is T1, β2 -adrenergic receptor (Rattus norvegicus, UniProt P10608).
T1 construct: The uteri of pregnant SD rats (pregnancy day 21) were isolated; from tissue; host or cells: longitudinal uterine muscle strips of pregnant SD rats (day 21)
In words: Action of drugs on the spontaneous contractions of isolated pregnant rat myometrium (β2-adrenergic receptor stimulating activity). The format is cell-based. The settings on record: isolated pregnant SD rat uterus (pregnancy day 21), Magnus method; read-out: EC50 value (activity to relax 50% of the spontaneous contractions of rat myometrium). On the procedure: Thus, the compounds of the present invention have markedly potent β2 -adrenergic receptor stimulating effect and therefore are remarkably useful as β2 -adrenergic receptor stimulating agents.
Action of Drugs on the Spontaneous Contractions of Isolated Pregnant Rat Myometrium
The uteri of pregnant SD rats (pregnancy day 21) were isolated and longitudinal uterine muscle strips (about 15 mm in length and about 5 mm in width) free from the basal plate were prepared. The experiment was conducted according to the Magnus method. The sample with a tension of 1 g was exposed to Locke-Ringer solution maintained at 37° C. and gassed with a mixture of 95% of oxygen and 5% of carbon dioxide. The spontaneous contractions of the myometrium were induced isometrically via a pressure transducer and recorded on a rectigram. The drug efficacy was evaluated as 50% inhibitory drug concentration (i.e., EC50 value) by comparing the total degree of uterine contraction during 5 minutes before the addition of the drug with the total degree of uterine contraction during 5 minutes after the addition of the drug.

pEC50: −log10 of the molar value.

T1 sequence (P10608 whole entry): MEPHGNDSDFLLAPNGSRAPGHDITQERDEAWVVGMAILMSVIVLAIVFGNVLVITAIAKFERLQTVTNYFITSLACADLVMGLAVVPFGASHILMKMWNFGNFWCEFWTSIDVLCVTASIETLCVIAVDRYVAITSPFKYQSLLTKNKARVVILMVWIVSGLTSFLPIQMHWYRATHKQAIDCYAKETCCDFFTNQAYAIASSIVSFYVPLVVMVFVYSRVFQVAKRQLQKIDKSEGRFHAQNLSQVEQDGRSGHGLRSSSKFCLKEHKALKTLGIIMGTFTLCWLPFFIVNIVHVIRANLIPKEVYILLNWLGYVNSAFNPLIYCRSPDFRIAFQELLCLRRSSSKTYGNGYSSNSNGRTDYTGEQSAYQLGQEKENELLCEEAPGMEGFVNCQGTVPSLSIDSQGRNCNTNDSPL

The pEC50 is −log10 of the EC50, conventionally taken in molar units. As to `CCOC(=O)COc1ccc2c(c1)C[C@@H](NCC(O)c1ccc(O)c(CO)c1)CC2` (mixture of isomers) [Compound 4, Ethyl 2-[(2S)-2-[[(2RS)-2-hydroxy-2-(4-hydroxy-3-hydroxymethylphenyl)ethyl]amino]-1,2,3,4-tetrahydronaphthalen-7-yloxy]acetate], the “death of animals during 24 hours after the administration” value in data set [1] is on record as “No death of animals was observed”. Further, the “EC20 value (concentration that increases 20 beats per minute of rat heart rate)” value in data set [2] was 1.1×10^-6 mol concentration. Further, the negative-log EC50 (pEC50) in data set [3] was 8.96.
